Results reported in paper PMC10058671 (Pharmaceutics, 2023).
Values after ≈ are worked out from the molar mass of the structure shown. Where two headings read alike, the source gives them in different places.

How the values were obtained:
[1] = Pharmacokinetic study after daily oral pyronaridine/artesunate in hamsters (noncompartmental analysis of observed blood, lung and trachea concentrations); set-up: species or system golden hamsters; conditions: for tolerability of the doses (no unscheduled deaths): 180/60 and 360/120 mg/kg pyronaridine/artesunate oral once a day for 3 days
Procedure: One hundred eight male golden hamsters were obtained from Janvier Lab. (Le Genest-Saint-Isle, France). All hamsters were maintained on a 12-h dark–light cycle at a temperature of 23 ± 3 °C and relative humidity of 55 ± 15%. This study was conducted according to the Guidelines for Ethical Conduct in the Care and Use of Animals and the rules of Good Laboratory Practice and was approved by the Institutional Animal Care and Use Committee (IACUC, protocol number SP2021-14) at Shin Poong Pharm. Co., Ltd. (Seoul, Republic of Korea).
The hamsters (102.01 ± 5.72 g) were divided into two groups: a low-dose group (n = 60) and a high-dose group (n = 48). […] Blood samples (0.5 mL) were drawn from the jugular vein into heparinized tubes at the following times: 0 (predose), 0.08, 0.25, 0.5, 0.75, 1, 2, 4, 8, 12, 24, 47, 48.08, 48.25, 48.5, 48.75, 49, 50, 52, 56, 60, and 72 h during oral administration for 3 days. The blood sampling was conducted 1–3 times per hamster within 72 h, and the tissues were collected after the last blood sampling. The number of animals was four per blood and tissue sampling time point, respectively (each n = 4). The lung and trachea tissues were immediately obtained after sacrificing hamsters, washed in normal saline, and dried with filter papers. The lung and trachea sampling times were as follows: 0.08, 0.25, 0.5, 0.75, 1, 4, 8, 24, 48.08, 48.25, 48.75, 52, and 72 h. Tissues were individually weighed and homogenized with water (lung or trachea tissue: water = 1:4 w/v). The lung and trachea tissue homogenate were stored at −70 °C until sample analysis. For pyronaridine quantification, whole blood samples were stored at −70 °C until sample analysis.
Liquid chromatography was conducted on the Agilent 1290 Infinity II LC System (Agilent Technologies Inc., Santa Clara, CA, USA) coupled to a 6490 Triple Quad Mass Spectrometer (Agilent Technologies Inc., Santa Clara, CA, USA). A Synergi Max-RP column (2.0 × 75 mm, 4 μm particle size, Phenomenex, Torrance, CA, USA) was used at a temperature of 25 °C. The mobile phase consisted of 0.04% TFA (mobile phase A) and methanol:acetonitrile (3:1 v/v, mobile phase B) with a flow rate of 0.2 mL/min. A gradient elution was used for the chromatographic separation of pyronaridine as follows: 0.0–1.5 min, 10% B; 1.5–1.6 min, 10–60% B; 1.6–4.0 min, 60% B; 4.0–4.1 min, 60–10% B; […], 10% B. The multiple reaction monitoring (MRM) mode was set with a positive electrospray ionization mode. The MRM transitions of pyronaridine and amodiaquine (internal standard, IS) were 518.2 > 447.1 and 356.2 > 283.0. The collision energy of pyronaridine and amodiaquine were 17 and 21 eV, and the cell accelerator voltage was 5 V for both compounds.
Chromatographic separation was performed with an Inertsil ODS column (2.1 × 100 mm, 5 µm particle size, GL Sciences, Tokyo, Japan) column at a temperature of 25 ℃. The mobile phase consisted of 10 mM ammonium acetate (mobile phase A) and acetonitrile (mobile phase B) with an isocratic elution (A:B = 10:90, v/v), and a flow rate of 0.2 mL/min. The mass spectrometer was operated on electrospray ionization positive mode.
Fifty μL of hamster blood, lung, or trachea tissue homogenates were added with 10 μL of the IS solution (10 μg/mL of amodiaquine). Added to the mixed sample were 125 μL of 0.5 M sodium phosphate tribasic dodecahydrate buffer (pH adjusted to 10.3 with 85% ortho-phosphoric acid) and 500 μL of ether, vortexed for 5 min and centrifuged at 21,130× g for 5 min. Then, 300 μL of supernatant were transferred to new microtubes and dried under nitrogen steam at room temperature. The dried residues were reconstituted with 100 μL of mobile phase (0.04% TFA:methanol:acetonitrile = 40:45:15, v/v/v) and vortexed for 5 min. After centrifugation at 21,130× g for 5 min, 5 μL of aliquot were injected into the UPLC-MS/MS system.
Then, 50 μL of hamster plasma, lung, or trachea tissue homogenates were added with 10 μL of the IS solution (5 μg/mL of artemisinin).

SARS-CoV-2 [2] = test system: SARS-CoV-2; set-up: method as in PMID 34272426; conditions: range in different cell types; cited from earlier work
SARS-CoV-2 [3] = test system: SARS-CoV-2; set-up: method as in PMID 32786284; conditions: anti-SARS-CoV-2; cited from earlier work
SARS-CoV-2 [4] = conditions: Call-3 cells, dose-dependent manner; cited from earlier work
seasonal influenza A = conditions: Call-3 cells, dose-dependent manner; cited from earlier work
[5] = rodents; cited from earlier work
[6] = in vivo; cited from earlier work
[7] = cited from earlier work
[8] = rat, in vivo; cited from earlier work
[9] = dog, in vivo; cited from earlier work
SARS-CoV-2 [10] = test system: SARS-CoV-2; set-up: method as in PMID 32916297; conditions: in vitro anti-SARS-CoV-2; cited from earlier work
SARS-CoV-2 in Vero cells = conditions: cited from earlier work
[11] = test system: SARS-CoV-2 in Vero E6 cells; set-up: method as in PMID 33075512; conditions: cited from earlier work
[12] = test system: SARS-CoV-2 in Huh7.5 cells; set-up: method as in PMID 34755538; conditions: cited from earlier work
[13] = test system: SARS-CoV-2 in Calu-3 cells; set-up: method as in PMID 34755538; conditions: cited from earlier work
SARS-CoV-2 [14] = test system: SARS-CoV-2; set-up: method as in PMID 35609344; conditions: SARS-CoV-2 infected mice; cited from earlier work
[15] = fitted, parent-metabolite model
[16] = male, golden, hamster, in vivo, po, 180 mg/kg
[17] = male, golden, hamster, in vivo, po, 360 mg/kg

With `C[C@H]1[C@H](OC(=O)CCC(=O)O)O[C@@H]2O[C@@]3(C)CC[C@H]4[C@H](C)CC[C@@H]1[C@@]24OO3` [Artesunate, artesunate] the “tolerability of the doses (no unscheduled deaths)” value [1] was “tolerated”, the “Klung (lung-to-blood partition coefficient)” value (fitted) was 10.33 and the “Ktrachea (trachea-to-blood partition coefficient)” value (fitted) was 1.48. The “ka (first-order absorption rate constant)” value (fitted) was 1.74 h⁻¹, the “klt (lung-to-trachea transfer rate constant)” value (fitted) was 0.34 h⁻¹ and the “ktl (trachea-to-lung transfer rate constant)” value (fitted) was 1.50 h⁻¹. For the same compound, the “CL/F (apparent total clearance)” value (hamster) was 2517.70 L/h, the EC50 (SARS-CoV-2 [2]) was 18.2 to 31.2 µM and the EC50 (SARS-CoV-2 [3]) was 13 µM. For the same compound, the “growth and viral replication of SARS-CoV-2” value (SARS-CoV-2 [4]) was “inhibited the growth and viral replication”, the “growth and viral replication of seasonal influenza A” value (seasonal influenza A) was “inhibited the growth and viral replication” and the maximal nonlethal dose [5] was 500 mg/kg. The elimination half-life [6] was 19.2 to 31.2 min, the “time to peak concentrations” value [6] was “less than five minutes” and the “time until concentrations decreased below the quantification limit” value [6] was 2 h.
In the case of `C[C@H]1[C@@H](O)O[C@@H]2O[C@@]3(C)CC[C@H]4[C@H](C)CC[C@@H]1[C@@]24OO3` [Dihydroartemisinin, dihydroartemisinin], the “Klung,m (lung-to-blood partition coefficient)” value [15] is reported as 0.34, the “Krest,m (rest of the body-to-blood partition coefficient)” value [15] is reported as 1.21 and the “Ktrachea,m (trachea-to-blood partition coefficient)” value [15] is reported as 1.08. For the same compound, the “klt,m (lung-to-trachea transfer rate constant)” value [15] was 0.35 h⁻¹, the “ktl,m (trachea-to-lung transfer rate constant)” value [15] was 6.98 h⁻¹ and the “CLm/F (apparent total clearance of metabolite)” value (hamster) was 10.33 L/h. For the same compound, the EC50 (SARS-CoV-2 [3]) was 13.3 µM, the “blood-to-plasma ratio / partition coefficient (Kb:p, Kb:p,m)” value [7] was 0.75 and the elimination half-life [8] was 15 to 61.8 min. For the same compound, the elimination half-life [9] was 0.39 to 0.66 h, the elimination half-life [6] was 19.2 to 31.2 min and the “time to peak concentrations” value [6] was “less than five minutes”.
In the case of `COc1ccc2nc3cc(Cl)ccc3c(Nc3cc(CN4CCCC4)c(O)c(CN4CCCC4)c3)c2n1` [Pyronaridine, Pyronaridine tetraphosphate], the “tolerability of the doses (no unscheduled deaths)” value [1] is reported as “tolerated”, the Kp at 3 day ([1]; male, golden, hamster, in vivo, lung-to-blood AUC ratio) is reported as 51 and the Kp at 1 day ([1]; male, golden, hamster, in vivo, lung-to-blood AUC ratio (=AUClung/AUCblood)) is reported as 25.5. For the same compound, the AUC at 1 day [1, 16] was 24100 ng·h/mL, the AUC at 3 day [1, 16] was 57100 ng·h/mL and the Cmax [1, 16] was 2700 ng/mL. The AUC at 1 day [1, 17] was 51000 ng·h/mL, the AUC at 3 day [1, 17] was 84900 ng·h/mL and the Cmax [1, 17] was 4540 ng/mL. It also gave a Tmax [1, 17] of 120 to 240 min, a Kp at 3 day ([1]; male, golden, hamster, in vivo, trachea-to-blood AUC ratio) of 16.6 and a Kp at 1 day ([1]; male, golden, hamster, in vivo, trachea-to-blood AUC ratio (=AUCtrachea/AUCblood)) of 7.17. The “Klung (lung-to-blood partition coefficient)” value (fitted) was 26.06, the “Krest (rest of the body-to-blood partition coefficient)” value (fitted) was 5.25 × 10^−7 and the “Ktrachea (trachea-to-blood partition coefficient)” value (fitted) was 8.67. The “ka (first-order absorption rate constant)” value (fitted) was 0.03 h⁻¹, the “klt (lung-to-trachea transfer rate constant)” value (fitted) was 0.92 h⁻¹ and the “ktl (trachea-to-lung transfer rate constant)” value (fitted) was 1.01 h⁻¹. The “CL/F (apparent total clearance)” value (hamster) was 0.21 L/h, the EC50 (SARS-CoV-2 [10]) was 0.72 µM and the EC90 (SARS-CoV-2 [10]) was 0.75 µM. For the same compound, the EC50 (SARS-CoV-2 in Vero cells; after 24 h of culture) was 0.5699 µg/mL (≈ 1.1 µM), the EC50 (SARS-CoV-2 in Vero cells; after 48 h of culture) was 1.1397 µg/mL (≈ 2.2 µM) and the EC50 [11] was 0.373 µg/mL (≈ 0.72 µM). The “concentration showing anti-SARS-CoV-2 activity” value [12] was 103.6 ng/mL, the “concentration showing anti-SARS-CoV-2 activity” value [13] was 8.6 ng/mL and the “viral load in the lungs” value (SARS-CoV-2 [14]) was “significant inhibition of the viral load in the lungs”. For the same compound, the “growth and viral replication of SARS-CoV-2” value (SARS-CoV-2 [4]) was “inhibited the growth and viral replication”, the “growth and viral replication of seasonal influenza A” value (seasonal influenza A) was “inhibited the growth and viral replication” and the blood-to-plasma ratio [7] was 4.9–17.8. For the same compound, the maximal nonlethal dose [5] was 1500 mg/kg, the elimination half-life [8] was “two to four days” and the elimination half-life [9] was 60 h.
